# Literature values in PubChem BioAssay AID1259409 (Chemical Carcinogenesis Research Information System (CCRIS), 2018).
# Test system: rodent chemically induced tumor inhibition, incidence and multiplicity
# Experiment: CCRIS tumor inhibitor studies
# Conditions: Dose [Inhibitor]: 0
structure (smiles),measurement,setting,value
COc1cc(C[C@@H](CO)[C@H](CO)Cc2ccc(O)c(OC)c2)ccc1O,"tumour outcome (control, treated, inhibition, significance)","Carcinogen: 7,12-DIMETHYLBENZ[A]ANTHRACENE, 57-97-6, 1.5 MG IN 1 ML OF DISTILLED WATER 1/D FOR 20 WK BEGINNING 1 WK POST CARCINOGEN DOSE (STUDY DURATION: 21 WK), Route [Inhibitor]: GAVAGE, Species: RAT, Strain/Sex: SPRAGUE-DAWLEY/FEMALE, Target Tissue: Type of Lesion: MAMMARY GLAND: TUMOR, Dose [Carcinogen]: 5 MG IN 1 ML CORN OIL ONCE, Promoter: NONE USED","26/30 (87%), 23/30 (77%), 11%, not significant"
CC(C)C(NC(=O)[C@@H]1CCCN1C(=O)[C@@H](NC(=O)c1ccc(C(=O)NS(=O)(=O)c2ccc(Br)cc2)cc1)C(C)C)C(=O)C(F)(F)F (stereo partly drawn),"tumour outcome (control, treated, inhibition, significance)","Carcinogen: UV-B IRRADIATION, 125 UG IN DMSO ADMINISTERED IMMEDIATELY PRIOR TO UV-B IRRADIATION AND 4 AND 24 HR POST IRRADIATION, CYCLE REPEATED 3/, Route [Inhibitor]: SUBCUTANEOUS, Species: MOUSE, Strain/Sex: SKH-1/FEMALE, Target Tissue: Type of Lesion: SKIN: CARCINOMA, Dose [Carcinogen]: 0.09 J/CM2 3/WK, Promoter: NONE USED","5/5 (100%), 2/5 (40%), 60%, not calculated"
same,"tumour outcome (control, treated, inhibition, significance)","Carcinogen: UV-B IRRADIATION, 125 UG IN DMSO ADMINISTERED IMMEDIATELY PRIOR TO UV-B IRRADIATION AND 4 AND 24 HR POST IRRADIATION, CYCLE REPEATED 3/, Route [Inhibitor]: SUBCUTANEOUS, Species: MOUSE, Strain/Sex: SKH-1/FEMALE, Target Tissue: Type of Lesion: SKIN: PAPILLOMA, Dose [Carcinogen]: 0.09 J/CM2 3/WK, Promoter: NONE USED","5/5 (100%), 3/5 (60%), 40%, not calculated"
Oc1ccc(C2=Cc3ccc(O)cc3OC2)cc1,"tumour outcome (control, treated, inhibition, significance)","Carcinogen: 7,12-DIMETHYLBENZ[A]ANTHRACENE, 57-97-6, 50 MG/KG IN DIET FOR 117 D (STUDY DURATION: 117 D), Route [Inhibitor]: ORAL, Species: RAT, Strain/Sex: SPRAGUE-DAWLEY/FEMALE, Target Tissue: Type of Lesion: MAMMARY GLAND: TUMOR, Dose [Carcinogen]: 15 MG IN SESAME OIL, ONCE, 7 D AFTER FIRST INHIBITOR DOSE","15/16 (94.7%), 12/18 (65%), 31.4%, p< 0.05"
same,"tumour outcome (control, treated, inhibition, significance)","Carcinogen: 7,12-DIMETHYLBENZ[A]ANTHRACENE, 57-97-6, 75 MG/KG IN DIET FOR 117 D (STUDY DURATION: 117 D), Route [Inhibitor]: ORAL, Species: RAT, Strain/Sex: SPRAGUE-DAWLEY/FEMALE, Target Tissue: Type of Lesion: MAMMARY GLAND: TUMOR, Dose [Carcinogen]: 15 MG IN SESAME OIL, ONCE, 7 D AFTER FIRST INHIBITOR DOSE","15/16 (94.7%), 12/17 (70%), 26.1%, p< 0.05"
NCCCCN,"tumour outcome (control, treated, inhibition, significance)","Carcinogen: AZOXYMETHANE, 25843-45-2, 300 UMOL/KG IN 0.9% SALINE 1/2 D FOR THE DURATION OF STUDY (STUDY DURATION: 40 WK), Route [Inhibitor]: INTRAPERITONEAL, Species: RAT, Strain/Sex: WISTAR/MALE, Target Tissue: Type of Lesion: COLON: TUMOR, Dose [Carcinogen]: 7.4 MG/KG IN 0.9% SALINE 1/WK FOR 10 WK, Promoter: NONE USED","16/20 (80%), 6/18 (33%), 59%, p<0.01"
C[C@]12CC[C@@H]3c4ccc(OC(=O)c5ccccc5)cc4CC[C@H]3[C@@H]1CC[C@@H]2O,"tumour outcome (control, treated, inhibition, significance)","Carcinogen: 1,2-DIMETHYLHYDRAZINE DIHYDROCHLORIDE, 306-37-6, 15 UG/KG IN PEANUT OIL ON DAYS 1 AND 3 OF STUDY THEN 1/WK FOR 30 WK (STUDY DURATION: 31 WK), Route [Inhibitor]: SUBCUTANEOUS, Species: RAT, Strain/Sex: SPRAGUE-DAWLEY/MALE, Target Tissue: Type of Lesion: COLON: ADENOCARCINOMA, Dose [Carcinogen]: 9 MG/KG 1/WK FOR 7 WK THEN 19.4 MG/KG 1/WK FOR 13 WK, Promoter: NONE USED","14/14 (100%), 14/14 (100%), 0%, not significant"
same,"tumour outcome (control, treated, inhibition, significance)","Carcinogen: 1,2-DIMETHYLHYDRAZINE DIHYDROCHLORIDE, 306-37-6, 15 UG/KG IN PEANUT OIL ON DAYS 1 AND 3 OF STUDY THEN 1/WK FOR 30 WK (STUDY DURATION: 31 WK), Route [Inhibitor]: SUBCUTANEOUS, Species: RAT, Strain/Sex: SPRAGUE-DAWLEY/MALE, Target Tissue: Type of Lesion: SMALL INTESTINE: ADENOCARCINOMA, Dose [Carcinogen]: 9 MG/KG 1/WK FOR 7 WK THEN 19.4 MG/KG 1/WK FOR 13 WK, Promoter: NONE USED","13/14 (93%), 11/14 (79%), 15%, not significant"
